According to publication PMC8319603, “Developing C2-Aroyl Indoles as Novel Inhibitors of IDO1 and Understanding Their Mechanism of Inhibition via Mass Spectroscopy, QM/MM Calculations and Molecular Dynamics Simulation” (Frontiers in Chemistry, 2021):

Experiments:
[1] = Stability in human plasma; format: in vitro ADME
Excerpt: For the DMPK studies of the compound 8a-d we used rat as well as human plasmas. Rat plasma was purchased from Hylasco Biotechnology Pvt. Ltd.™ Hyderabad, India. We have not performed any in vivo experiments for this manuscript neither for animals nor for humans. […] Also please note the blood plasma was obtained from the blood of Dr Srinivas R Maddi, who donated it and is the co-author of this article. The DMPK studies were supplemented by kinetic solubility, Log p and Log D determinations, PAMPA permeability, Metabolic and Plasma stability in rat and human, and finally the plasma folding in rat and human. A thorough discussion of each step is mentioned in the supplementary information. […]
Stability in rat and human plasma: Plasma stability is defined as the percentage of parent compound lost over time. The frozen plasma was thawed at room temperature and centrifuged at 1400 rpm 4 ℃, for 15 minutes. Approximately 90% of the clear supernatant fraction was transferred to a separate tube and was used for assay. The incubation mixtures consisted of human and rat palsma and compound (1 μM) or positive control (propanthelin, 1 μM) and incubated for 120 min at 37℃ in shaker with 500 rpm. All reactions were terminated using 200 μL of ice-cold acetonitrile containing internal standard (150 ng/mL of telmisartan) at 0, 15, 30, 60 and 120 min and centrifuged at 4000 rpm (Eppendorf, Germany) for 20min. The supernatants thus obtained were analyzed on LC-MS/MS to monitor the disappearance of compound. […]

[2] = biological target: T1, indolamine-2, 3-dioxygenase one (IDO1) (Homo sapiens, UniProt P14902); assay: Inhibition kinetics (Lineweaver-Burk plots); format: biochemical; conditions: L-tryptophan 1–4 mM, inhibitor 0–1.5 µM; with respect to L-tryptophan
T1 construct: purchased Biovision P1096
Experimental: The IDO1 activity assay was performed to measure the formation of […] by absorbance plate reader at 492 nm. The mode of inhibition of the screened compounds was determined from the Lineweaver-Burk plots, which are the double reciprocal plots of enzyme reaction velocities (1/V) vs. substrate concentrations (1/[S]), where V and [S] represent the initial rate of enzymatic reaction and L-tryptophan concentration respectively.

T1 sequence (P14902 whole entry): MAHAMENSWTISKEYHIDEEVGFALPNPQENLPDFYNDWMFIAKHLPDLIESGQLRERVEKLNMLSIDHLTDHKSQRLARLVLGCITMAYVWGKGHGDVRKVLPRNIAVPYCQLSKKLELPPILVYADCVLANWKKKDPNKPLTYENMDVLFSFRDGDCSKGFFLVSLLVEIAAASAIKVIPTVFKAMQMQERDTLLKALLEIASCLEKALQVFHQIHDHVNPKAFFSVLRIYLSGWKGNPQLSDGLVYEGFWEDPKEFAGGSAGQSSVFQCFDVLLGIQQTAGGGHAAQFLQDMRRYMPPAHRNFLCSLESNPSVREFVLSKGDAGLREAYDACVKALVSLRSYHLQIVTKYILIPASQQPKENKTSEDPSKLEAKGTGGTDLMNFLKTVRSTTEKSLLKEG

Human plasma stability %Ge remaining after 120 min [1]	Mode of inhibition of IDO1 [2]	Compound
108.3%	–	COC(=O)NCCc1c(C(=O)c2ccccc2)[nH]c2ccccc12 [8e]
85.0%	competitive	CC(=O)NCCc1c(C(=O)c2ccc([N+](=O)[O-])cc2)[nH]c2ccccc12 [8d]
84.5%	–	CC(=O)NCCc1c(C(=O)c2cc(C(F)(F)F)cc(C(F)(F)F)c2)[nH]c2ccccc12 [8a]
